One test deals with T1, Human ALDH1A1 (Homo sapiens, UniProt P00352).
T1 construct: made in house
T1 sequence (P00352 1-501): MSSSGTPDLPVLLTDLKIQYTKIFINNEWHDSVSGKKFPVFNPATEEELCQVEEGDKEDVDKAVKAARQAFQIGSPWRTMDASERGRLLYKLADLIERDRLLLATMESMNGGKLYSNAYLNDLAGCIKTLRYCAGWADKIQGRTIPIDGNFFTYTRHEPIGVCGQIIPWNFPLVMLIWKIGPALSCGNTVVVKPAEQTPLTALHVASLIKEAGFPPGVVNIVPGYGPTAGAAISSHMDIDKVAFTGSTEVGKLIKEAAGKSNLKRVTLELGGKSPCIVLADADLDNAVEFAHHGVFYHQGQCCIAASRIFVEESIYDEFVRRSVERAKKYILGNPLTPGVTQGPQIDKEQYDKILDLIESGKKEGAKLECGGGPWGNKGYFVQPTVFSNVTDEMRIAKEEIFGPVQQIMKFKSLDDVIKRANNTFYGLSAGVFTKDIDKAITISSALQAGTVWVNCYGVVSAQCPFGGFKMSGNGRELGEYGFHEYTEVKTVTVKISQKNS
Description: 1,536-well enzymatic assay (NADH fluorescence), ALDH1A1. The class given is biochemical. The following applies: Biochemical IC50 ALDH1A1, validation set; 20 nM enzyme, NAD+ and propionaldehyde. From the text: (§1) To validate our optimized assay, we assembled a set of 20 previously reported ALDH inhibitors, with varying degrees of target specificity (Table 1 and S4 Fig). […] Briefly, the assay measures the dehydrogenase activity of recombinant human ALDH1A1, ALDH1A2, ALDH1A3, ALDH2 or ALDH3A1 using NAD(P)^+ and either propionaldehyde or benzaldehyde as substrates. An orthogonal resorufin-based assay format was also run with isolated ALDH1A1 to rule out potential false positives due to intrinsic compound fluorescence.
(§2) Human ALDH1A1 and ALDH3A1 were expressed and purified as described elsewhere. Human ALDH2 was purchased from Abcam (ab87415). Human ALDH1A2 and ALDH1A3 were purchased from MyBioSource (MBS1005929; San Diego, CA) and ThermoFisher (11636H07E50), respectively. The inhibitory activity of compounds against ALDHs was measured according to protocols described previously. Briefly, 3 μL of enzyme (final concentrations of 20 nM for ALDH1A1, 50 nM for ALDH1A2, 50 nM for ALDH1A3, 75 nM for ALDH2 and 5 nM for ALDH3A1) in assay buffer (100 mM HEPES pH 7.5 with 0.01% Tween 20) were dispensed into a 1,536-well solid-bottom black plate (Greiner Bio One, Monroe, NC). […] Samples were incubated (room temperature, protected from light) for 15 minutes followed by a 1 μL substrate addition of NAD^+ and Propionaldehyde (final concentrations of 1 mM and 80 μM, respectively) for ALDH1A1, 1A2, 1A3, and ALDH2 or NADP^+ and benzaldehyde (final concentrations of 1 mM and 200 μM, respectively) for ALDH3A1. Plates were centrifuged at 1,000 rpm for 15 seconds, then read in kinetic mode on a ViewLux High-throughput CCD imager (PerkinElmer, Waltham, MA) equipped with standard UV fluorescence optics (340 nm excitation, 450 nm emission) for 5 (ALDH1A1, ALDH1A2, ALDH2, ALDH3A1) or 30 (ALDH1A3) minutes. The change in fluorescence intensity over the 5- or 30-minute reaction period was normalized against no-inhibitor and no-enzyme controls and the resulting percent inhibition data were fitted to a 4-parameter Hill equation. Bay-11 7085 was used as intraplate control. To account for artifacts due to intrinsic compound fluorescence in the above spectrum, compounds were also tested in an orthogonal resorufin assay format with optics of excitation 525 nm/emission 598 nm as described before. The same parameters as the NADH assay were used for the resorufin assay, with the addition of (final) 133 μg/mL diaphorase and 37 μM resazurin to the assay solution. Same controls were used in both formats.
In the case of `Cc1cc2c(C(C)C)c(O)c(O)c(C=O)c2c(O)c1-c1c(C)cc2c(C(C)C)c(O)c(O)c(C=O)c2c1O` [Gossypol], the half-maximal inhibitory concentration (IC50) was determined as 25.6 µM.

Staying with this test, now noted: hits of dual cell-based screen (Table 2); read-out: Biochemical IC50 ALDH1A1.
Consider `C[S+](=O)([O-])c1ccc(Cn2c3c(c4cc(F)cc(F)c42)CCCC3CC(=O)O)cc1` [L-670596], for which the IC50 was determined as 0.25 µM.
Take `CC(C)N(C(=O)CCl)c1ccccc1` [Propachlor]: the concentration for half-maximal inhibition (IC50) turned out to be 0.01 µM.

Staying with this test, now noted: validation set; 20 nM enzyme, NAD+ and propionaldehyde; read-out: Biochemical IC50 ALDH1A1.
Take `CC(C)=CCCC(C)=CC=O` (mixture of isomers) [Citral]: the IC50 turned out to be 10.8 µM.
Take `COc1ccc(C(=O)CCN(C)C)cc1F` [Aldi-2]: the IC50 worked out at 0.15 µM.
For the compound `CC(C)(C)c1ccc(S(=O)(=O)/C=C/C#N)cc1` [Bay-11-7085], the IC50 amounted to 0.09 µM.
For the compound `CCOc1ccc(NCC(=O)Nc2ccc(Cl)cc2C)cc1` [CID 725345], the IC50 came to 0.77 µM.
Same read-out and setting: in the case of `COc1cccc2cc(C(=O)CC3(O)C(=O)N(Cc4ccccc4)c4ccccc43)c(=O)oc12` (stereo not drawn) [CID 2929292] it was 0.29 µM.
The same measure, in the same setting: in the case of `Nc1ccccc1C(=O)CC(N)C(=O)O` (stereo not drawn) [Kynurenine] it was 40.5 µM; in that of `O=C1Nc2ccccc2C1=O` [indoline-2,3-dione], 0.01 µM; in that of CVT-10216, 19.1 µM.

The target in another test is T2, Human ALDH2 (Homo sapiens, UniProt P05091).
T2 construct: purchased Abcam ab87415
T2 sequence (P05091 18-517): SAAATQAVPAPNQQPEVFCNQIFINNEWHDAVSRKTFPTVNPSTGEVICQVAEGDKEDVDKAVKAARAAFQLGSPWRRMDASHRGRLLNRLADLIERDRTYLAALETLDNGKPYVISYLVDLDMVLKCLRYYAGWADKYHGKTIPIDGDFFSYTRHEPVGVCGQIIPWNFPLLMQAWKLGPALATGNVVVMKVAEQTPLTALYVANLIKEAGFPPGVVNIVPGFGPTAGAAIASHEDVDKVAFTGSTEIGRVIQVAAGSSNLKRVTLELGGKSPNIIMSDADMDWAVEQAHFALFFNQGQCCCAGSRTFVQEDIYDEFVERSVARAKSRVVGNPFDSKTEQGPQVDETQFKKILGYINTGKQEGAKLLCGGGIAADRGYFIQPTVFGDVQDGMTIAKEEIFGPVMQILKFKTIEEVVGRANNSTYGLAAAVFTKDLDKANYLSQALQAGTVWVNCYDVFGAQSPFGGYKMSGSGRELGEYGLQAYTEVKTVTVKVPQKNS
Description: 1,536-well enzymatic assay (NADH fluorescence), ALDH2. In kind it is biochemical.
Conditions: not given
From the text: as §1, §2
Consider `Cc1cc2c(C(C)C)c(O)c(O)c(C=O)c2c(O)c1-c1c(C)cc2c(C(C)C)c(O)c(O)c(C=O)c2c1O` [Gossypol], for which it took 24.1 µM to reach half-maximal inhibition (IC50).

The same test, now with this note: hits of dual cell-based screen (Table 2); read-out: Biochemical IC50 ALDH2.
Consider `CC(C)N(C(=O)CCl)c1ccccc1` [Propachlor], for which the IC50 is 12.6 µM.

The test is the same for the next values; noted with them: validation set; 75 nM enzyme, NAD+ and propionaldehyde; read-out: Biochemical IC50 ALDH2.
As for `CC(C)=CCCC(C)=CC=O` (mixture of isomers) [Citral], the IC50 was determined as 4.28 µM.
Turning to `COc1ccc(C(=O)CCN(C)C)cc1F` [Aldi-2], the IC50 worked out at 0.1 µM.
On the same count and under the same terms, in the case of `CC(C)(C)c1ccc(S(=O)(=O)/C=C/C#N)cc1` [Bay-11-7085] it was 0.05 µM.
Still for that read-out and setting: in the case of `Cc1nc2ccccc2n1S(=O)(=O)c1ccc(F)cc1` [CB7] it was 19.1 µM; in that of `CCOc1ccc(NCC(=O)Nc2ccc(Cl)cc2C)cc1` [CID 725345], 2.15 µM.
On the same count and under the same terms, in the case of `COc1cccc2cc(C(=O)CC3(O)C(=O)N(Cc4ccccc4)c4ccccc43)c(=O)oc12` (stereo not drawn) [CID 2929292] it was 9.59 µM; in that of `O=C1Nc2ccccc2C1=O` [indoline-2,3-dione], 21.5 µM; in that of CVT-10216, 1.21 µM.

For a further test, the target named is T3, Human ALDH3A1 (Homo sapiens, UniProt P30838).
T3 construct: made in house
T3 sequence (P30838 1-453): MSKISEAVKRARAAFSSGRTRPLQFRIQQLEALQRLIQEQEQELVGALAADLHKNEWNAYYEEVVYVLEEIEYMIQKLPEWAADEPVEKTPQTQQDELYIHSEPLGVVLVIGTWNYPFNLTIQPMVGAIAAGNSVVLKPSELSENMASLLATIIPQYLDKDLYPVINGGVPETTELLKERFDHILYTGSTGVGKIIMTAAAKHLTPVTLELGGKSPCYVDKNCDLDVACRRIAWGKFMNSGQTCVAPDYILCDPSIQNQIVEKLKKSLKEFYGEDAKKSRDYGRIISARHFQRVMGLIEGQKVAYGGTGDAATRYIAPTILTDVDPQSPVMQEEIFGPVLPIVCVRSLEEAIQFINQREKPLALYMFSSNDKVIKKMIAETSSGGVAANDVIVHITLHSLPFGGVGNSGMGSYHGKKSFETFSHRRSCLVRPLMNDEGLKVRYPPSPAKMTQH
In words: 1,536-well enzymatic assay (NADPH fluorescence), ALDH3A1. In kind it is biochemical.
Conditions: not given
From the text: as §1, §2
`Cc1cc2c(C(C)C)c(O)c(O)c(C=O)c2c(O)c1-c1c(C)cc2c(C(C)C)c(O)c(O)c(C=O)c2c1O` [Gossypol] displayed an IC50 of 27 µM.

The same test, now with this note: hits of dual cell-based screen (Table 2); read-out: Biochemical IC50 ALDH3A1.
`CC(C)N(C(=O)CCl)c1ccccc1` [Propachlor]: the IC50 amounted to 50.1 µM.

Still in this test, the particulars now being: validation set; 5 nM enzyme, NADP+ and benzaldehyde; read-out: Biochemical IC50 ALDH3A1.
Consider `COc1ccc(C(=O)CCN(C)C)cc1F` [Aldi-2], for which the IC50 was found to be 0.04 µM.
The same measure, in the same setting: in the case of `CC(C)(C)c1ccc(S(=O)(=O)/C=C/C#N)cc1` [Bay-11-7085] it was 0.54 µM; in that of `CCOc1ccc(NCC(=O)Nc2ccc(Cl)cc2C)cc1` [CID 725345], 5.39 µM.
Same read-out and setting: as for `COc1cccc2cc(C(=O)CC3(O)C(=O)N(Cc4ccccc4)c4ccccc43)c(=O)oc12` (stereo not drawn) [CID 2929292], the figure is 21.5 µM; as for `CCN(CC)c1ccc(C=O)cc1` [DEAB, 4-N,N-diethylaminobenzaldehyde], 6.05 µM.
As for `CCN(CC)C(=S)SSC(=S)N(CC)CC` [Disulfiram], the IC50 is 1.91 µM.
Still for that read-out and setting: as for `O=C1Nc2ccccc2C1=O` [indoline-2,3-dione], the figure is 2.41 µM; as for CVT-10216, 17.1 µM.

Another test concerns ALDH1A1.
Assay: not given
The note with it: reported ALDH target 1A1; read-out: Reported Biochemical IC50, ALDH1A1; cited from earlier work.
As to `COc1ccc(C(=O)CCN(C)C)cc1F` [Aldi-2], the IC50 was 2.5 µM.
With `CC(C)(C)c1ccc(S(=O)(=O)/C=C/C#N)cc1` [Bay-11-7085], the IC50 was 0.074 µM.
As to `CCOc1ccc(NCC(=O)Nc2ccc(Cl)cc2C)cc1` [CID 725345], the IC50 was 3.5 µM.
Turning to `COc1cccc2cc(C(=O)CC3(O)C(=O)N(Cc4ccccc4)c4ccccc43)c(=O)oc12` (stereo not drawn) [CID 2929292], the IC50 is 0.09 µM.
`CCN(CC)C(=S)SSC(=S)N(CC)CC` [Disulfiram]: the IC50 was 0.15 µM.
For `Cc1cc2c(C(C)C)c(O)c(O)c(C=O)c2c(O)c1-c1c(C)cc2c(C(C)C)c(O)c(O)c(C=O)c2c1O` [Gossypol], the IC50 was 75 µM.
Take `O=C1Nc2ccccc2C1=O` [indoline-2,3-dione]: the IC50 is 0.02 µM.
Consider CVT-10216, for which the IC50 was 1.3 µM.

In another test the test system is ALDH2.
Assay: not given
The note with it: reported ALDH target 2; read-out: Reported Biochemical IC50, ALDH2; cited from earlier work.
In the case of `COc1ccc(C(=O)CCN(C)C)cc1F` [Aldi-2], the IC50 is 6.4 µM.
Regarding `CC(C)(C)c1ccc(S(=O)(=O)/C=C/C#N)cc1` [Bay-11-7085], the IC50 was 0.034 µM.
Turning to `CCN(CC)c1ccc(C=O)cc1` [DEAB, 4-N,N-diethylaminobenzaldehyde], the IC50 is 0.16 µM.
As to `O=c1c(-c2ccc(O)cc2)coc2cc(O[C@@H]3O[C@H](CO)[C@@H](O)[C@H](O)[C@H]3O)ccc12` [Daidzin], the IC50 is 0.29 µM.
Turning to CVT-10216, the IC50 is 0.029 µM.

A further test deals with ALDH3A1.
Assay: not given
The following applies: reported ALDH target 3A1; read-out: Reported Biochemical IC50, ALDH3A1; cited from earlier work.
Consider `COc1ccc(C(=O)CCN(C)C)cc1F` [Aldi-2], for which the IC50 is 1.9 µM.
For the compound `CC(C)(C)c1ccc(S(=O)(=O)/C=C/C#N)cc1` [Bay-11-7085], the IC50 is 0.1 µM.

A further test has as its system breast cancer cells that express ALDH1A3.
Assay: not given
On the set-up: method as in PMID 27592281. The note with it: flow cytometry, at concentrations >10 μM; cited from earlier work.
`CC(C)=CCCC(C)=CC=O` (mixture of isomers) [Citral]: the “Reduction of ALDEFLUOR fluorescence” value is listed as “significantly reduced ALDEFLUOR fluorescence”.
In the case of `CCN(CC)c1ccc(C=O)cc1` [DEAB, 4-N,N-diethylaminobenzaldehyde], the “Reduction of ALDEFLUOR fluorescence” value is given as “significantly reduced ALDEFLUOR fluorescence”.

(Values after paper PMC5271370, “A High-Content Assay Enables the Automated Screening and Identification of Small Molecules with Specific ALDH1A1-Inhibitory Activity” (PLoS ONE, 2017).)
